Test [1] deals with T1, mouse P2X1 receptor (Mus musculus, UniProt P51576).
T1 construct: EST clones containing full-length cDNAs of mouse P2X1 (clone ID: 4189541) and human P2X7 receptor (clone ID: 5286944); host or cells: Xenopus oocytes (cRNA injected)
T1 sequence (P51576 1-399): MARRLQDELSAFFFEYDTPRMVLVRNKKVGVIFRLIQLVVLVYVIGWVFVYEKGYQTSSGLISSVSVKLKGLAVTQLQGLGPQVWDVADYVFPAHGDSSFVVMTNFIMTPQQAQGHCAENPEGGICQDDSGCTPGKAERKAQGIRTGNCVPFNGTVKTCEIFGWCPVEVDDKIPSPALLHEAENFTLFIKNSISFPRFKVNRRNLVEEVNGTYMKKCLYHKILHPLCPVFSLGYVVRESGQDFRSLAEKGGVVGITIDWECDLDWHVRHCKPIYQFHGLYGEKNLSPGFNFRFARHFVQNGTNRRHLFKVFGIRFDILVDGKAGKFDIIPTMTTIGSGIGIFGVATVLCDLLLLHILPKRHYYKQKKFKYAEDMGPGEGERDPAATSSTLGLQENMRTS
Briefly: Two-electrode voltage clamp, ATP-induced ion current in Xenopus oocytes expressing mouse P2X1. Type of test: cell-based. Conditions: for inhibition at 10 µM / % inhibition mP2X1: Table 2, 10 μM compound, ion current induced by 2 μM ATP, mean ± SEM, n = 4; for inhibition at 10 µM: read-out: % inhibition mP2X1. The method, then:
1-1. Antagonistic Activity at Recombinant Mouse P2X1 and Human P2X3 Receptors
(§1) Xenopus oocytes were harvested and prepared with method as previously described in publications. Defolliculated oocytes were injected cytosolically with mouse P2X1 and human P2X3 receptor cRNA ([…], 1 μg/mL), respectively, incubated for 24 hrs at 18° C. in Barth's solution and kept for up to 12 days at 4° C. until used in electrophysiological experiments. ATP-activated membrane currents (Vh=−70 mV) were recorded from cRNA-injected oocytes using the twin-electrode voltage-clamp technique (Axoclamp 2B amplifier). Voltage recording (1-2 MΩ tip resistance) and current-recording microelectrodes (5 MΩ tip resistance) were filled with 3.0 M KCl. Oocytes were held in an electrophysiological chamber and superfused with Ringer's solution (5 mL/min, at 18° C.) containing (mM) NaCl, 110; KCl, 2.5; HEPES, 5; BaCl2, 1.8, adjusted to pH 7.5. ATP was superfused over the oocytes for 60-120s then washed out for a period of 20 min. For inhibition curves, data were normalized to the current evoked by ATP, at pH 7.5. Test substances were added for 20 min prior to ATP exposure; all peptides were tested for reversibility of their effects. The concentration required to inhibit the ATP response by 50% (IC50) was taken from Hill plots constructed using the formula: log(I/Imax−1), where I is the current evoked by ATP in the presence of an antagonist. Data are presented as mean±SEM (n=4) for the data from different batches of oocytes.

The target in test [2] is T2, human P2X3 receptor (Homo sapiens, UniProt P56373).
T2 construct: expressed in transfected cells; host or cells: Xenopus oocytes (cRNA injected); cDNA from the Max-Planck Institute laboratory (Dr. W. Stuhmer and Dr. F. Soto)
T2 sequence (P56373 1-397): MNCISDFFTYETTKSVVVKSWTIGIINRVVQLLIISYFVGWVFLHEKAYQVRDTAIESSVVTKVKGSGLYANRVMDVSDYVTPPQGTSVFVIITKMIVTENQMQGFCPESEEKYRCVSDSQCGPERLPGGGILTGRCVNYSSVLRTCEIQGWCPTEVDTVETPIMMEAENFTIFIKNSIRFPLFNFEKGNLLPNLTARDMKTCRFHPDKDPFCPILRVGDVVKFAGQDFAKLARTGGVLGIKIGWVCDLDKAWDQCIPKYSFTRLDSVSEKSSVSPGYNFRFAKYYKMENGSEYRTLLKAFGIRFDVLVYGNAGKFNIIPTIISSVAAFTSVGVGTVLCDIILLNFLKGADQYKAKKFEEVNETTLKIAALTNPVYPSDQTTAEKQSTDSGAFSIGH
Kind of test: Two-electrode voltage clamp, ATP-induced ion current in Xenopus oocytes expressing human P2X3. Type of test: cell-based. The note with it: for inhibition at 10 µM: read-out: % inhibition hP2X3. The procedure: Antagonistic Activity at Recombinant Mouse P2X1 and Human P2X3 Receptors
as §1

For test [3], the target named is T3, human P2X7 receptor (Homo sapiens, UniProt Q99572).
T3 construct: EST clones containing full-length cDNAs of mouse P2X1 (clone ID: 4189541) and human P2X7 receptor (clone ID: 5286944); host or cells: HEK293
T3 sequence (Q99572 1-595): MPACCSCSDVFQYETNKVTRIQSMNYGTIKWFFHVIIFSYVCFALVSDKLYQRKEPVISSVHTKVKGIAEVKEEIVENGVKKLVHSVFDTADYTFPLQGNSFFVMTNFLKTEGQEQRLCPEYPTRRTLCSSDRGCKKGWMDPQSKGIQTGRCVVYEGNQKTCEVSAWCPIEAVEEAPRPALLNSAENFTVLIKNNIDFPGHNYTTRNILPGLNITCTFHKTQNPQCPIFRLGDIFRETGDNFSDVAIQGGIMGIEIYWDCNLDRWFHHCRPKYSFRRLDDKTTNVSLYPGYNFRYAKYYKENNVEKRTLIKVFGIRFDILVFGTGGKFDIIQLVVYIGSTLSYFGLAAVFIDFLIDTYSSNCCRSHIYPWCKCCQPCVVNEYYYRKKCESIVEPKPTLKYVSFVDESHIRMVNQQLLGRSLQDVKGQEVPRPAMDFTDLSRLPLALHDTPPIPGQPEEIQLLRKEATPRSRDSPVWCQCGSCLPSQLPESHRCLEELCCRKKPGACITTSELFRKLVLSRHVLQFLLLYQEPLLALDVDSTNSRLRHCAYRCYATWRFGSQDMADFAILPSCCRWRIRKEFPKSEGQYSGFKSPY
Briefly: Ethidium+ accumulation assay in human P2X7-expressing HEK293 cells. The class given is cell-based. Conditions: 10 μM compound, ethidium+ accumulation induced by 6 μM BzATP, n = 3. The procedure: 1-2. Ethidium^+ Accumulation Assay at Human P2X7 Receptors
Human P2X7-expressing HEK293 cells were grown as monolayer culture at 37° C. in a humidified atmosphere of 5% CO2, DMEM supplemented with 10% fetal bovine serum. Cells were harvested with treatment of Trypsin/EDTA solution, collected by centrifugation (200 g for 5 min).
The cells were resuspended at 2.5×10^6 cells/mL in assay buffers, consisting of (in mM) HEPES 10, KCl 140, glucose 5, EDTA 1 (pH 7.4), and then ethidium bromide (100 μM) was added. Cell suspensions were added to 96 well plates containing the P2X7 receptor agonist, ATP or BzATP, at 2×10^5 cells/wells. Plates were incubated at 37° C. for 120 min and cellular accumulation of ethidium^+ was determined by measuring fluorescence with Bio-Tek instrument FL600 fluorescent plate reader (excitation wavelength of 530 nm and emission wavelength of 590 nm). When the effects of antagonists, such as PPADS, KN62, and test peptides were studied, antagonists were treated together with agonist without pre-incubation.

The subject of test [4] is P2 receptor. Conditions: conventional antagonist, stated shortcoming; cited from earlier work.
Setting [5] is: Table 2, 10 μM compound, ion current induced by 2 μM ATP, mean ± SEM, n = 4.
Where [6] appears, read: concentration-response curve, 2 μM ATP, mean of four observations, read-out: IC50 value.

On to `COc1ccccc1CCc1nc(C)c(O)c(C(=O)O)c1C(=O)O` [Compound 41, 5-Hydroxy-2-[2-(2-methoxy-phenyl)-ethyl]-6-methyl-pyridine-3,4-dicarboxylic acid], for which the values for the inhibition at 10 µM in test [1] and in test [2] (setting [5]) were 49.8 ± 5.4% and 34.5 ± 4.3%, respectively. The “% inhibition hP2X7” value in test [3] was “inactive”.
With `Cc1nc(CC(c2ccccc2)c2ccccc2)c(C(=O)O)c(C(=O)O)c1O` [Compound 51, 2-(2,2,-diphenylethyl)5-hydroxy-6-methylpyridine-3,4-dicarboxylic acid], the “% inhibition mP2X1” value in test [1] is on record as 53.9 ± 5.1%. In addition, in test [2] (setting [5]), the “% inhibition hP2X3” value worked out at 62.9 ± 7.1%. Besides, in test [3], the “% inhibition hP2X7” value is “inactive”.
As for `Cc1nc(CCc2ccccc2)c(C(=O)O)c(C(=O)O)c1O` [Compound 36, 5-Hydroxy-6-methyl-2-phenethyl-pyridine-3,4-dicarboxylic acid], in test [1], the “% inhibition mP2X1” value is 73.4 ± 9.7%. The results for the inhibition at 10 µM in test [1] and in test [2] (setting [5]) were 77% and 51 ± 9.8%, respectively. For the same molecule, the Hill coefficient in test [1] (concentration-inhibitory curve, 2 μM ATP (FIG. 1B, FIG. 2A)) was −1.03±0.21; in test [2] (concentration-inhibitory curve, 2 μM ATP (FIG. 1C, FIG. 2B)), −0.63±0.20. Besides, the half-inhibitory concentration (IC50) worked out at 361 nM in test [1] (setting [6]) and 432 nM in test [2] (setting [6]). In addition, in test [2] (concentration of 100 nM, receptor not stated in the sentence (follows FIG. 2B, human P2X3), read-out: % inhibition), the inhibition at 0.1 µM stood at 38.3%. Also, the “% inhibition hP2X7” value in test [3] was “inactive”.
With `COc1ccccc1/C=C/c1nc(C)c(O)c(C(C)=O)c1C(=O)O` [Compound 49, (E)-4-acetyl-5-hydroxy-2-(2-methoxystyryl)-6-methylnicotinic acid], the inhibition at 10 µM in test [1] worked out at 11.4 ± 3.3%; in test [2] (setting [5]), 6.3 ± 2.3%. For the same molecule, in test [3], the “% inhibition hP2X7” value was “inactive”.
With `COc1cccc(/C=C/c2nc(C)c(O)c(C(C)=O)c2C(=O)O)c1` [Compound 48, (E)-4-acetyl-5-hydroxy-2-(3-methoxystyryl)-6-methylnicotinic acid], the inhibition at 10 µM is 29.9 ± 5.7% in test [1] and 15.8 ± 9% in test [2] (setting [5]). Further, in test [3], the “% inhibition hP2X7” value was “inactive”.
As to `Cc1nc(Cc2ccccc2)c(C(=O)O)c(C(=O)O)c1O` [Compound 35, 2-Benzyl-5-hydroxy-6-methyl-pyridine-3,4-dicarboxylic acid], the inhibition at 10 µM in test [1] was determined as 54.2 ± 10.6%; in test [2] (setting [5]), 31.4 ± 6.2%. Moreover, the “% inhibition hP2X7” value in test [3] is “inactive”.
For the molecule `COc1cccc(CCc2nc(C)c(O)c(C(=O)O)c2C(=O)O)c1` [Compound 40, 5-Hydroxy-2-[2-(3-methoxy-phenyl)-ethyl]-6-methyl-pyridine-3,4-dicarboxylic acid], the inhibition at 10 µM in test [1] came to 52.4 ± 6.2%; in test [2] (setting [5]), 39.3 ± 3.8%. For the same molecule, the “% inhibition hP2X7” value in test [3] is “inactive”.
As to `COc1ccc(CCc2nc(C)c(O)c(C(C)=O)c2C(=O)O)cc1` [Compound 46, 4-acetyl-5-hydroxy-2-(4-methoxyphenethyl)-6-methylnicotinic acid], the inhibition at 10 µM came to 52 ± 7.1% in test [1] and 42.2 ± 7.5% in test [2] (setting [5]). The “% inhibition hP2X7” value in test [3] was “inactive”.
Regarding `Cc1nc(N=Nc2ccc(S(=O)(=O)O)cc2S(=O)(=O)O)c(COP(=O)(O)O)c(C=O)c1O` [PPADS, pyridoxalphosphate-6-azophenyl-2′,4′-disulphonic acid], in test [4], the “reversibility of blocking activity” value is “irreversible blocking activity”.

(Values after patent publication US9546139B2, “Pyridine carboxylic acid based compound used as a P2X1 and P2X3 receptor antagonist, a production method for the same and a composition comprising the same” (GWANGJU INSTITUTE OF SCIENCE AND TECHNOLOGY, priority 2010, dated 2017).)
